Laboratory results published in patent US10770169B2, “Method of providing a treatment to a subject based on a dynamic pathway map” (THE REGENTS OF THE UNIVERSITY OF CALIFORNIA, priority 2010, dated 2020).
Read-outs that look alike come from different tables or passages of the source.

Legend:
[1] = tested on: panel of 55 breast cancer cell lines; assay: Cell growth inhibition assay (Cell Titer Glo, 72 h, 9 doses; GI50, TGI, LC50); type: cell-based, human; details: Homo sapiens, read-out: GI50 (converted)
[2] = tested on: breast cancer cell lines with aberrant vs normal copy number; assay: Association of recurrent copy number changes and response (t-test on GI50); type: cell-based, human; details: FDR p<0.2
From the text: We used a t-test to assess the association between recurrent copy number changes (at 8q24 (MYC), 11q13 (CCND1), 20q13 (STK15/AURKA)) and drug sensitivity. We combined into a single group cell lines with low or no amplification and compared them to cell lines with high amplification. […] Cell lines for which the GI50 was equal to the maximum concentration tested were omitted from analysis. We omitted compounds where any group had fewer than five samples.

Compound: CCC1=C[C@@H]2CN(C1)Cc1c([nH]c3ccccc13)[C@@](C(=O)OC)(c1cc3c(cc1OC)N(C)[C@H]1[C@@](O)(C(=O)OC)[C@H](OC(C)=O)[C@]4(CC)C=CCN5CC[C@]31[C@@H]54)C2 [Vinorelbine]
- GI50 ([1]; 600MPE cell line, censored GI50 values): 5130 nM
- GI50 ([1]; AU565, AU565 cell line, censored GI50 values): 8.71 nM
- GI50 ([1]; AU565, cell line AU565): 8.71 nM
- GI50 ([1]; BT-474, BT474 cell line, censored GI50 values): 47.9 nM
- GI50 ([1]; BT-474, cell line BT474): 47.9 nM
- GI50 ([1]; BT-483, BT483 cell line, censored GI50 values): 7.24 nM
- GI50 ([1]; BT-483, cell line BT483): 7.24 nM
- GI50 ([1]; BT-549, BT549 cell line, censored GI50 values): 9.55 nM
- GI50 ([1]; BT-549, cell line BT549): 9.55 nM
- GI50 ([1]; CAMA-1, CAMA1 cell line, censored GI50 values): 13.2 nM
- GI50 ([1]; CAMA-1, cell line CAMA1): 13.2 nM
- GI50 ([1]; HCC38, HCC38 cell line, censored GI50 values): 11.5 nM
- GI50 ([1]; HCC38, cell line HCC38): 11.5 nM
- GI50 ([1]; HCC70, HCC70 cell line, censored GI50 values): 7.41 nM
- GI50 ([1]; HCC70, cell line HCC70): 7.41 nM
- GI50 ([1]; HCC202, HCC202 cell line, censored GI50 values): 13.5 nM
- GI50 ([1]; HCC202, cell line HCC202): 13.5 nM
- GI50 ([1]; HCC1143, HCC1143 cell line, censored GI50 values): 263 nM
- GI50 ([1]; HCC1143, cell line HCC1143): 263 nM
- GI50 ([1]; HCC1187, HCC1187 cell line, censored GI50 values): 26.9 nM
- GI50 ([1]; HCC1187, cell line HCC1187): 26.9 nM
- GI50 ([1]; HCC1395, HCC1395 cell line, censored GI50 values): 3.55 nM
- GI50 ([1]; HCC1395, cell line HCC1395): 3.55 nM
- GI50 ([1]; HCC1419, HCC1419 cell line, censored GI50 values): 355 nM
- GI50 ([1]; HCC1419, cell line HCC1419): 355 nM
- GI50 ([1]; HCC1428, HCC1428 cell line, censored GI50 values): 2190 nM
- GI50 ([1]; HCC1428, cell line HCC1428): 2190 nM
- GI50 ([1]; HCC1500, HCC1500 cell line, censored GI50 values): 11 nM
- GI50 ([1]; HCC1500, cell line HCC1500): 11 nM
- GI50 ([1]; HCC1806, HCC1806 cell line, censored GI50 values): 11.7 nM
- GI50 ([1]; HCC1806, cell line HCC1806): 11.7 nM
- GI50 ([1]; HCC1937, HCC1937 cell line, censored GI50 values): 224 nM
- GI50 ([1]; HCC1937, cell line HCC1937): 224 nM
- GI50 ([1]; HCC1954, HCC1954 cell line, censored GI50 values): 3.55 nM
- GI50 ([1]; HCC1954, cell line HCC1954): 3.55 nM
- GI50 ([1]; HCC2185 cell line, censored GI50 values): 26300 nM
- GI50 ([1]; HCC3153 cell line, censored GI50 values): 51.3 nM
- GI50 ([1]; LY2 cell line, censored GI50 values): 13.2 nM
- GI50 ([1]; MCF7, MCF7 cell line, censored GI50 values): 16.6 nM
- GI50 ([1]; MCF7, cell line MCF7): 16.6 nM
- GI50 ([1]; MDA-MB-134-VI, MDAMB134VI cell line, censored GI50 values): 13.5 nM
- GI50 ([1]; MDA-MB-157, MDAMB157 cell line, censored GI50 values): 12.9 nM
- GI50 ([1]; MDA-MB-157, cell line MDAMB157): 12.9 nM
- GI50 ([1]; MDA-MB-175-VII, MDAMB175VII cell line, censored GI50 values): 38.9 nM
- GI50 ([1]; MDA-MB-231, MDAMB231 cell line, censored GI50 values): 5.13 nM
- GI50 ([1]; MDA-MB-231, cell line MDAMB231): 5.13 nM
- GI50 ([1]; MDA-MB-361, MDAMB361 cell line, censored GI50 values): 6.61 nM
- GI50 ([1]; MDA-MB-361, cell line MDAMB361): 6.61 nM
- GI50 ([1]; MDA-MB-415, MDAMB415 cell line, censored GI50 values): 18.2 nM
- GI50 ([1]; MDA-MB-415, cell line MDAMB415): 18.2 nM
- GI50 ([1]; MDA-MB-436, MDAMB436 cell line, censored GI50 values): 26.9 nM
- GI50 ([1]; MDA-MB-436, cell line MDAMB436): 26.9 nM
- GI50 ([1]; MDA-MB-453, MDAMB453 cell line, censored GI50 values): 3.8 nM
- GI50 ([1]; MDA-MB-453, cell line MDAMB453): 3.8 nM
- GI50 ([1]; MDA-MB-468, MDAMB468 cell line, censored GI50 values): 10.7 nM
- GI50 ([1]; MDA-MB-468, cell line MDAMB468): 10.7 nM
- GI50 ([1]; SK-BR-3, SKBR3 cell line, censored GI50 values): 17.4 nM
- GI50 ([1]; SK-BR-3, cell line SKBR3): 17.4 nM
- GI50 ([1]; SUM52PE, SUM52PE cell line, censored GI50 values): 5.37 nM
- GI50 ([1]; SUM52PE, cell line SUM52PE): 5.37 nM
- GI50 ([1]; SUM149PT, SUM149PT cell line, censored GI50 values): 12.3 nM
- GI50 ([1]; SUM149PT, cell line SUM149PT): 12.3 nM
- GI50 ([1]; SUM185PE, SUM185PE cell line, censored GI50 values): 8.32 nM
- GI50 ([1]; SUM185PE, cell line SUM185PE): 8.32 nM
- GI50 ([1]; SUM1315MO2, SUM1315MO2 cell line, censored GI50 values): 2.24 nM
- GI50 ([1]; SUM-159-PT, SUM159PT cell line, censored GI50 values): 12.3 nM
- GI50 ([1]; SUM-159-PT, cell line SUM159PT): 12.3 nM
- GI50 ([1]; T47D, T47D cell line, censored GI50 values): 4680 nM
- GI50 ([1]; T47D, cell line T47D): 4680 nM
- GI50 ([1]; UACC-812, UACC812 cell line, censored GI50 values): 74.1 nM
- GI50 ([1]; UACC-812, cell line UACC812): 74.1 nM
- GI50 ([1]; UACC-893, UACC893 cell line, censored GI50 values): 11 nM
- GI50 ([1]; UACC-893, cell line UACC893): 11 nM
- GI50 ([1]; ZR-75-1, ZR751 cell line, censored GI50 values): 44.7 nM
- GI50 ([1]; ZR-75-1, cell line ZR751): 44.7 nM
- GI50 ([1]; ZR-75B, ZR75B cell line, censored GI50 values): 8.91 nM
- GI50 ([1]; ZR-75B, cell line ZR75B): 8.91 nM
- GI50 ([1]; cell line 600MPE): 5130 nM
- GI50 ([1]; cell line HCC2185): 26300 nM
- GI50 ([1]; cell line HCC3153): 51.3 nM
- GI50 ([1]; cell line LY2): 13.2 nM
- GI50 ([1]; cell line MDAMB134V): 13.5 nM
- GI50 ([1]; cell line MDAMB175V): 38.9 nM
- GI50 ([1]; cell line SUM1315MO): 2.24 nM
- association of response with homozygous deletion at 9p21 (CDKN2A) [2]: associated with response
